Data reported in patent US9833497B2, “Human originated EGF domain proteins and use of the same” (CHENGDU SOURCEBIO LIMITED-LIABILITY COMPANY, priority 2013, dated 2017).

Experiments:
[1] = tested on: Citrobacter diversus; assay: MIC against Gram-negative bacteria: Citrobacter diversus; assay type: cell-based; conditions: 5×10^5 CFU/mL
Outline: (§1)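 Two-fold serial dilutions of each purified human EGF domain protein, three replicate wells per level, were combined with bacteria at a final 5×10^5 CFU/mL in LB. Cultures were shaken at 175 rpm, 37° C. The MIC was taken as the minimum concentration preventing growth.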

[2] = tested on: Serratia marcescens; assay: MIC against Gram-negative bacteria: Serratia marcescens; assay type: cell-based; conditions: 5×10^5 CFU/mL
Outline: as §1

[3] = tested on: Enterobacter cloacae; assay: MIC against Gram-negative bacteria: Enterobacter cloacae; assay type: cell-based; conditions: 5×10^5 CFU/mL
Outline: as §1

[4] = tested on: E. coli DH5α; assay: Antibacterial activity: MIC and growth curve against E. coli DH5α in 96-well plate; assay type: cell-based; conditions: for MIC: minimal inhibitory concentration against E. coli DH5α, 96-well plate, 37° C., judged after 8 h
Outline: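 MIC taken as lowest protein level with no bacterial growth, tracked by A600 every 30 min during 37 °C, 175 rpm culture. Two-fold protein series 50-12.5 μg/mL final, triplicate wells, against 5×10^5 CFU/mL of LB-washed mid-log cells.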

[5] = tested on: Proteus mirabilis; assay: MIC against Gram-negative bacteria: Proteus mirabilis; assay type: cell-based; conditions: 5×10^5 CFU/mL
Outline: as §1

[6] = tested on: Klebsiella pneumonia; assay: MIC against Gram-negative bacteria: Klebsiella pneumonia; assay type: cell-based; conditions: 5×10^5 CFU/mL
Outline: as §1

[7] = tested on: Pseudomonas aeruginosa; assay: MIC against Gram-negative bacteria: Pseudomonas aeruginosa; assay type: cell-based; conditions: 5×10^5 CFU/mL
Outline: as §1

[8] = tested on: Moraxella catarrhalis; assay: MIC against Gram-negative bacteria: Moraxella catarrhalis; assay type: cell-based; conditions: 5×10^5 CFU/mL
Outline: as §1

[9] = Silver staining detection of endotoxin (LPS) hydrolysis; assay type: biochemical; conditions: E. coli EH100 LPS incubated overnight with protein, FIG. 28
Procedure: 1. The E. coli EH100 LPS (Sigma) samples were respectively incubated with the obtained human-originated EGF domain proteins (PRT1 to PRT1498 in Table 1) such as the recombination protein hF VII-EGF1, etc.; and the control group was the LPS sample incubated with TB S buffer. The incubation lasted overnight. Then, the centrifugation was performed to collect the pellet.
2. The 1×loading buffer for LPS (0.05 mol/L Tris-HCl, containing 10 g/L SDS, 100 g/L sucrose, 0.5% β-mercaptoethanol, 10 mg/L Bromophenol Blue, pH 6.8) was mixed with the sample of the treated pellet and incubated on a metal bath at 100° C. for 5 min.
3. 15% separating gel (containing 4 mol/L urea, Bio-Rad with a thickness of 1.0 mm, the detailed composition as follows: 1.15 mL of deionized water, 2.5 mL of 30% acrylamide, 1.3 mL of 1.5 mol/L Tris-HCl (pH 8.8, containing 10% SDS), 50 μl of 10% ammonium persulfate, 4 μl of TEMED) was mixed well and prepared. The top of the separating gel was overlaid with water.
4. 5% stacking gel was prepared as follows: 1.42 mL of deionized water, 0.33 mL of 30% acrylamide, 0.25 mL of 1 mol/L Tris-HCl (pH 6.8, containing 10% SDS), 20 μL of 10% ammonium persulfate, 2 μL of TEMED) were mixed well and poured. A ten-well comb was quickly inserted.
5. After the gel was prepared, the samples were loaded. Then, the gel was run at a voltage of 120 V to separate the samples. […]

[10] = tested on: Proteus vulgaris; assay: MIC against Gram-negative bacteria: Proteus vulgaris; assay type: cell-based; conditions: 5×10^5 CFU/mL
Outline: as §1

[11] = tested on: Aeromonas hydrophila; assay: MIC against Gram-negative bacteria: Aeromonas hydrophila; assay type: cell-based; conditions: 5×10^5 CFU/mL
Outline: as §1

[12] = tested on: E. coli BL21; assay: MIC against Gram-negative bacteria: E. coli BL21; assay type: cell-based; conditions: 5×10^5 CFU/mL
Outline: as §1

[13] = Citrobacter diversus, 96-well plate, 37° C., 10 h
[14] = Serratia marcescens, 96-well plate, 37° C., 10 h
[15] = Enterobacter cloacae, 96-well plate, 37° C., 10 h
[16] = Proteus mirabilis, 96-well plate, 37° C., 10 h
[17] = Klebsiella pneumonia, 96-well plate, 37° C., 10 h
[18] = Pseudomonas aeruginosa, 96-well plate, 37° C., 10 h
[19] = Moraxella catarrhalis, 96-well plate, 37° C., 10 h
[20] = Proteus vulgaris, 96-well plate, 37° C., 10 h
[21] = Aeromonas hydrophila, 96-well plate, 37° C., 10 h
[22] = E. coli BL21, 96-well plate, 37° C., 10 h

hF VII-EGF1: human coagulation factor VII-EGF1 domain protein, molecular weight about 3.9 kD, recombinant, released from RFP fusion by rTEV (DGDQCASSPCQNGGSCKDQLQSYICFCLPAFEGRNCE; listed as Homo sapiens)
MIC (μg/mL) C. diversus [1, 13]: 12.5 µg/mL
MIC (μg/mL) S. marcescens [2, 14]: 12.5 µg/mL
MIC (μg/mL) E. cloacae [3, 15]: 12.5 µg/mL
MIC (minimal inhibitory concentration) ([4]; E. coli DH5α, 5×10^5 CFU/mL, after 8 h of cultivation at 37° C.): 12.5 µg/mL
inhibitory effect on the growth of E. coli DH5α ([4]; growth curve (OD 600 nm), FIG. 27 / Table 2): significant inhibitory effect
MIC ([4]; 5×10^5 CFU/mL): 12.5 µg/mL
MIC (μg/mL) P. mirabilis [5, 16]: 25 µg/mL
MIC (μg/mL) K. pneumonia [6, 17]: 25 µg/mL
MIC (μg/mL) P. aeruginosa [7, 18]: 25 µg/mL
MIC (μg/mL) M. catarrhalis [8, 19]: 25 µg/mL
hydrolysis of LPS (LPS band in silver staining) [9]: eliminates the majority of LPS
MIC (μg/mL) P. vulgaris [10, 20]: 12.5 µg/mL
MIC (μg/mL) A. hydrophila [11, 21]: 12.5 µg/mL
MIC (μg/mL) E. coli BL21 [12, 22]: 12.5 µg/mL

PRT454 (LPDQCTPNPCDRKGTQACQDLMGNFFCLCKAGWGGRLCD; listed as Homo sapiens)
MIC against C. diversus ([1]; 96-well plate, 37° C., 10 h): 25 µg/mL
MIC against S. marcescens ([2]; 96-well plate, 37° C., 10 h): 12.5 µg/mL
MIC against E. cloacae ([3]; 96-well plate, 37° C., 10 h): 25 µg/mL
MIC ([4]; 5×10^5 CFU/mL): 50 µg/mL
MIC against P. mirabilis ([5]; 96-well plate, 37° C., 10 h): 12.5 µg/mL
MIC against K. pneumonia ([6]; 96-well plate, 37° C., 10 h): 50 µg/mL
MIC against P. aeruginosa ([7]; 96-well plate, 37° C., 10 h): 25 µg/mL
MIC against M. catarrhalis ([8]; 96-well plate, 37° C., 10 h): 50 µg/mL
MIC against P. vulgaris ([10]; 96-well plate, 37° C., 10 h): 50 µg/mL
MIC against A. hydrophila ([11]; 96-well plate, 37° C., 10 h): 12.5 µg/mL
MIC against E. coli BL21 ([12]; 96-well plate, 37° C., 10 h): 12.5 µg/mL

PRT1246 (CKELCSCHPHGQCEDVTGQCTCHARRWGARCE; listed as Homo sapiens)
MIC against C. diversus [1, 13]: 12.5 µg/mL
MIC against S. marcescens [2, 14]: 12.5 µg/mL
MIC against E. cloacae [3, 15]: 50 µg/mL
MIC ([4]; 5×10^5 CFU/mL): 50 µg/mL
MIC against P. mirabilis [5, 16]: 50 µg/mL
MIC against K. pneumonia [6, 17]: 25 µg/mL
MIC against P. aeruginosa [7, 18]: 12.5 µg/mL
MIC against M. catarrhalis [8, 19]: 25 µg/mL
MIC against P. vulgaris [10, 20]: 25 µg/mL
MIC against A. hydrophila [11, 21]: 25 µg/mL
MIC against E. coli BL21 [12, 22]: 25 µg/mL

PRT788 (WGPHCTSRCQCKNGALCNPITGACHCAAGFRGWRCE; listed as Homo sapiens)
MIC (μg/mL) C. diversus ([1]; C. diversus, 10 h cultivation at 37° C.): 50 µg/mL
MIC (μg/mL) S. marcescens ([2]; S. marcescens, 10 h cultivation at 37° C.): 50 µg/mL
MIC (μg/mL) E. cloacae ([3]; E. cloacae, 10 h cultivation at 37° C.): 12.5 µg/mL
MIC ([4]; 5×10^5 CFU/mL): 50 µg/mL
MIC (μg/mL) P. mirabilis ([5]; P. mirabilis, 10 h cultivation at 37° C.): 12.5 µg/mL
MIC (μg/mL) K. pneumonia ([6]; K. pneumonia, 10 h cultivation at 37° C.): 25 µg/mL
MIC (μg/mL) P. aeruginosa ([7]; P. aeruginosa, 10 h cultivation at 37° C.): 50 µg/mL
MIC (μg/mL) M. catarrhalis ([8]; M. catarrhalis, 10 h cultivation at 37° C.): 25 µg/mL
MIC (μg/mL) P. vulgaris ([10]; P. vulgaris, 10 h cultivation at 37° C.): 50 µg/mL
MIC (μg/mL) A. hydrophila ([11]; A. hydrophila, 10 h cultivation at 37° C.): 25 µg/mL
MIC (μg/mL) E. coli BL21 ([12]; E. coli BL21, 10 h cultivation at 37° C.): 100 µg/mL
